Molecular target: cAMP and cAMP-inhibited cGMP 3',5'-cyclic phosphodiesterase 10A (Homo sapiens, UniProt Q9Y233)
Assay: PDE10A assay
Method in brief: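 Human PDE10A (2 ng/well) preincubated 15 min RT with compound in HEPES pH 7.5, 10 mM MgCl2, BSA, then reacted 15 min with 50 nM [3H]cGMP/cGMP substrate. Stopped with Y-Si SPA beads; bound radioactivity counted, IC50 from four-parameter logistic, pIC50 = −log10(IC50).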

| Compound | IC50 |
| --- | --- |
| CCCNC(=O)c1cc(NC(=O)c2c(C(=O)N3CCC3)cnn2C)nn1C [Roche-Dataset for PDE10A, Compound 871] | 10 µM |
| CCOc1ccccc1C(=O)Nc1cc(-c2ccccn2)n[nH]1 [Roche-Dataset for PDE10A, Compound 876] | 1.48 µM |
| Cc1ncc(C)n2nc(CCc3nc(N4CCNC4=O)nn3C)nc12 [Roche-Dataset for PDE10A, Compound 887] | 1.06 µM |
| O=C(Nc1ccn2nc(-c3ccccc3)nc2c1)c1ccc(Cl)nn1 [Roche-Dataset for PDE10A, Compound 897] | 10 µM |
| O=C(NCCC1CCCCC1)c1nc(C2CC2)cnc1Nc1cncnc1 [Roche-Dataset for PDE10A, Compound 901] | 1.41 µM |
| Cn1ncc(C(=O)N2CCC2)c1C(=O)Nc1cn(-c2cnccn2)cn1 [Roche-Dataset for PDE10A, Compound 906] | 2.44 µM |
| COc1ccc2c(=O)n(C)c3c(C(C)C)nc(-c4ccccc4Cl)n3c2c1 [Roche-Dataset for PDE10A, Compound 908] | 0.771 µM |
| Cc1ncc(C)n2nc(/C=C/c3nc(N4CCCN4C)nn3C)nc12 [Roche-Dataset for PDE10A, Compound 911] | 0.747 µM |
| O=C(NCCC1CCOCC1)c1nc(C2CC2)cnc1Nc1cncnc1 [Roche-Dataset for PDE10A, Compound 915] | 1.47 µM |
| O=C(Nc1cccc(C(=O)N2CCOCC2)n1)c1nc(C2CC2)cnc1Nc1cncnc1 [Roche-Dataset for PDE10A, Compound 920] | 0.00749 µM |
| COc1ncccc1C(=O)Nc1cc(-c2ccccn2)nn1C [Roche-Dataset for PDE10A, Compound 921] | 9.73 µM |
| O=C(N[C@@H]1CCN(c2ccc(Cl)nn2)C1)c1nc(C2CC2)ccc1Nc1cncnc1 [Roche-Dataset for PDE10A, Compound 923] | 0.012 µM |
| O=C(NCC1(c2ccccc2)CCOCC1)c1nc(C2CC2)cnc1Nc1cncnc1 [Roche-Dataset for PDE10A, Compound 924] | 1.16 µM |
| O=C1CCc2c(NC(=O)c3nc(C4CC4)cnc3Nc3cncnc3)cccc21 [Roche-Dataset for PDE10A, Compound 932] | 0.124 µM |
| O=C(c1nc(C2CC2)cnc1Nc1cncnc1)N1CCC(Cc2ccccc2)CC1 [Roche-Dataset for PDE10A, Compound 937] | 10 µM |
| Cn1ncc(C(=O)N2CCOCC2)c1C(=O)N[C@H]1CCn2cc(-c3ccc(F)cc3)nc2C1 [Roche-Dataset for PDE10A, Compound 938] | 0.624 µM |
| CC(C)C[C@H](CO)NC(=O)c1nc(C2CC2)cnc1Nc1cncnc1 [Roche-Dataset for PDE10A, Compound 939] | 2.45 µM |
| Cn1nc(NC(=O)c2c(C(=O)N3CCC3)cnn2C)cc1C(=O)N1CCCCC1 [Roche-Dataset for PDE10A, Compound 941] | 10 µM |

| Compound | IC50 |
| --- | --- |
| COCCNC(=O)c1nc(C2CC2)cnc1Nc1cncnc1 [Roche-Dataset for PDE10A, Compound 946] | 2.54 µM |
| Cc1ccc2c(c1)c(=O)n(C)c1c(C)nc(-c3ccccc3Cl)n21 [Roche-Dataset for PDE10A, Compound 948] | 0.027 µM |
| Cn1ncc(C(=O)N2CCC2)c1C(=O)Nc1ccn(Cc2ccccc2)n1 [Roche-Dataset for PDE10A, Compound 950] | 0.116 µM |
| Cc1nc2ccccc2nc1OCc1csc(N2CCOCC2)n1 [Roche-Dataset for PDE10A, Compound 951] | 2.37 µM |
| Cc1ncc(C)n2nc(CCc3nc(C4CCCC4)nn3C)nc12 [Roche-Dataset for PDE10A, Compound 956] | 0.146 µM |
| Cn1ncc(C(=O)N2CCC2)c1C(=O)Nc1cc(-c2ccccc2Cl)n[nH]1 [Roche-Dataset for PDE10A, Compound 958] | 1.29 µM |
| CCOC(=O)c1cc(NC(=O)c2c(C(=O)N3CCC3)cnn2C)nn1C [Roche-Dataset for PDE10A, Compound 959] | 1.34 µM |
| CCOC(=O)c1cnn(C)c1C(=O)Nc1cn(-c2ccccn2)cn1 [Roche-Dataset for PDE10A, Compound 960] | 2.67 µM |
| Cc1ncc(C)n2nc(CCc3nc(-c4cn[nH]c4)nn3C)nc12 [Roche-Dataset for PDE10A, Compound 961] | 0.087 µM |
| Cc1ncc(C)n2nc(/C=C/c3nc(Br)cn3C3CC3)nc12 [Roche-Dataset for PDE10A, Compound 964] | 6.65 µM |
| COc1ccc2c(c1)c(=O)n(C)c1c(C)nc(-c3ccccc3Cl)n21 [Roche-Dataset for PDE10A, Compound 965] | 0.0077 µM |
| CCCCc1cc(NC(=O)c2c(C(=O)N3CCC3)cnn2C)nn1C1CCCC1 [Roche-Dataset for PDE10A, Compound 966] | 0.568 µM |
| Cc1nc(-c2ccccc2Cl)n2c3ccc(Cl)cc3c(=O)n(C)c12 [Roche-Dataset for PDE10A, Compound 967] | 0.015 µM |
| CC(C)(C)OCCCNC(=O)c1nc(C2CC2)cnc1Nc1cncnc1 [Roche-Dataset for PDE10A, Compound 968] | 0.295 µM |
| Cn1ncc(C(=O)N2CCC2)c1C(=O)Nc1ccn(Cc2ccc(Cl)cc2)n1 [Roche-Dataset for PDE10A, Compound 970] | 0.12 µM |
| CNC(=O)[C@@H]1CCC[C@H]1NC(=O)c1nc(C2CC2)cnc1Nc1cncnc1 [Roche-Dataset for PDE10A, Compound 971] | 1.14 µM |
| Cc1c(Cl)cc(Cl)c2nc(CCc3nccn3C)nn12 [Roche-Dataset for PDE10A, Compound 972] | 0.166 µM |
| O=C(c1nc(C2CC2)cnc1Nc1cncnc1)N1CCN(c2ccccc2F)CC1 [Roche-Dataset for PDE10A, Compound 975] | 6.17 µM |

The remaining lines, values ahead:

| IC50 | Compound |
| --- | --- |
| 0.031 µM | O=C(Nc1cccc(OC(F)(F)F)c1)c1nc(C2CC2)cnc1Nc1cncnc1 [Roche-Dataset for PDE10A, Compound 874] |
| 0.026 µM | CCC(=O)c1cc(NC(=O)c2nc(C3CC3)cnc2Nc2cncnc2)ccc1O [Roche-Dataset for PDE10A, Compound 875] |
| 0.015 µM | O=C(Nc1cccc(N2CCCC2=O)c1)c1nc(C2CC2)cnc1Nc1cncnc1 [Roche-Dataset for PDE10A, Compound 878] |
| 0.00965 µM | O=C(NCC1CC1)c1cccc(NC(=O)c2nc(C3CC3)cnc2Nc2cncnc2)n1 [Roche-Dataset for PDE10A, Compound 880] |
| 0.027 µM | O=C1CCc2ccc(NC(=O)c3nc(C4CC4)cnc3Nc3cncnc3)cc21 [Roche-Dataset for PDE10A, Compound 881] |
| 0.032 µM | CN(C)C(=O)Cn1ccc(NC(=O)c2nc(C3CC3)cnc2Nc2cncnc2)n1 [Roche-Dataset for PDE10A, Compound 882] |
| 0.118 µM | Cn1ccc(NC(=O)c2nc(C3CC3)ccc2Nc2cncnc2)n1 [Roche-Dataset for PDE10A, Compound 883] |
| 6.22 µM | Cc1noc(C(=O)Nc2cc(-c3ccccn3)nn2C)c1Br [Roche-Dataset for PDE10A, Compound 886] |
| 0.00548 µM | CC(C)(O)CNC(=O)c1cccc(NC(=O)c2nc(C3CC3)cnc2Nc2cncnc2)n1 [Roche-Dataset for PDE10A, Compound 894] |
| 3.35 µM | Cc1cc(NC(=O)c2ccc3cc(-c4ccccc4)nn3c2)on1 [Roche-Dataset for PDE10A, Compound 898] |
| 0.015 µM | CS(=O)(=O)Nc1cccc(NC(=O)c2nc(C3CC3)cnc2Nc2cncnc2)c1 [Roche-Dataset for PDE10A, Compound 900] |
| 0.00499 µM | CCOC(=O)Cc1csc(NC(=O)c2nc(C3CC3)cnc2Nc2cncnc2)n1 [Roche-Dataset for PDE10A, Compound 914] |
| 0.024 µM | CC(C)Oc1cccc(NC(=O)c2nc(C3CC3)cnc2Nc2cncnc2)n1 [Roche-Dataset for PDE10A, Compound 917] |
| 5.77 µM | CC(=O)Nc1nc2cc(NC(=O)c3nc(C)ccc3C)ccc2s1 [Roche-Dataset for PDE10A, Compound 926] |
| 0.0086 µM | CC(C)NC(=O)c1cccc(NC(=O)c2nc(C3CC3)cnc2Nc2cncnc2)n1 [Roche-Dataset for PDE10A, Compound 928] |
| 0.00575 µM | O=C(Nc1ccc2cccnc2c1)c1nc(C2CC2)ccc1Nc1cncnc1 [Roche-Dataset for PDE10A, Compound 929] |
| 0.811 µM | Cn1cc(Br)c(C(=O)Nc2cc(-c3ccccn3)nn2C)n1 [Roche-Dataset for PDE10A, Compound 934] |
| 0.00691 µM | O=C(Nc1conc1-c1ccccc1)c1nc(C2CC2)ccc1Nc1cncnc1 [Roche-Dataset for PDE10A, Compound 935] |
| 3.5 µM | CCOC(=O)c1cnn(C)c1C(=O)Nc1ccn2nc(Br)nc2c1 [Roche-Dataset for PDE10A, Compound 936] |
| 8.14 µM | Cc1ccc(Nc2cncc(O)n2)c(C(=O)Nc2ccn(C)n2)n1 [Roche-Dataset for PDE10A, Compound 940] |
| 0.00994 µM | O=C(Nc1cnc(Cl)cc1Cl)c1nc(C2CC2)ccc1Nc1cncnc1 [Roche-Dataset for PDE10A, Compound 942] |
| 0.013 µM | COCCn1ncc(NC(=O)c2nc(C3CC3)ccc2Nc2cncnc2)c1C(=O)N(C)C [Roche-Dataset for PDE10A, Compound 944] |
| 0.055 µM | O=C(Nc1ccc2nccnc2c1)c1nc(C2CC2)ccc1Nc1cncnc1 [Roche-Dataset for PDE10A, Compound 945] |
| 0.967 µM | Cc1nc(-c2ccc(Cl)cc2)oc1C(=O)Nc1cc(-c2ccccn2)nn1C [Roche-Dataset for PDE10A, Compound 947] |
| 0.01 µM | O=C(Nc1ccc(O)c2c1CCCC2=O)c1nc(C2CC2)cnc1Nc1cncnc1 [Roche-Dataset for PDE10A, Compound 949] |
| 0.00764 µM | CC(=O)N1CC(C)(C)c2ccc(NC(=O)c3nc(C4CC4)cnc3Nc3cncnc3)cc21 [Roche-Dataset for PDE10A, Compound 952] |
| 0.019 µM | CC(=O)c1cccc(NC(=O)c2nc(C3CC3)cnc2Nc2cncnc2)c1 [Roche-Dataset for PDE10A, Compound 957] |
| 0.016 µM | CCCc1cccc(NC(=O)c2nc(C3CC3)cnc2Nc2cncnc2)n1 [Roche-Dataset for PDE10A, Compound 963] |
| 0.036 µM | CC(=O)c1ccc(NC(=O)c2nc(C3CC3)ccc2Nc2cncnc2)s1 [Roche-Dataset for PDE10A, Compound 974] |

From BindingDB's records for doi:10.1007/s10822-022-00478-x (Roche Innovation Center Basel, F. Hoffmann-La Roche Ltd., 2022)
